The values below come from patent publication US20230365493A1, “COMPOUNDS AND METHODS” (DEMAGTECH PTY LTD, priority 2020, published 2023).

Series [1] has as its system Solanum lycopersicum (tomato). As to the kind of experiment: Activity vs a panel of plants: Solanum lycopersicum. In kind it is in vivo. The settings on record: 31.25 μM to 4000 μM; imaged day 10. The source says:
(§1) Pots (63×63×59 mm) were filled with Seedling Substrate Plus+ soil (Bord na Móna Horticulture Ltd, Newbridge, Ireland) consisting of Irish peat. Soil was pre-wet to saturation before sowing seeds. Seeds of the following species were sown. • Arabidopsis thaliana • Cynodon dactylon (couch grass) • Eragrostis tef (tef) • Lolium rigidum (herbicide resistant ryegrass) • Ratibida columnifera (prairie coneflower) • Raphanus raphanistrum (wild radish) • Solanum lycopersicum (tomato) • Triticum aestivum (wheat)
(§2) The number of seeds depended on germination rate and plant size. Seeds were sown in pots (63×63×59 mm) of Seedling Substrate Plus+ soil (Bord na Móna Horticulture Ltd, Newbridge, Ireland) consisting of Irish peat. Soil was pre-wet before sowing to saturation and watered throughout the experiment to maintain adequate moisture. No fertilizer was added. Seeds were cold-treated 7 days in the dark at 4° C. to synchronize germination and grown in a chamber at 22° C., with 60% relative humidity and a 16 h light/8 h dark photoperiod. […]
(§3) Each compound was tested on seedlings by pipetting 600 μL of 0, 31.25, 62.5, 125, 250, 500, 1000, 2000 or 4000 μmol/L solutions directly onto the plants; these quantities and concentrations are equivalent to ˜10, 20, 40, 78, 156, 312, 625 and 1250 g/ha a.i. […]

Series [2] concerns Raphanus raphanistrum (wild radish). As to the kind of experiment: Activity vs a panel of plants: Raphanus raphanistrum. In kind it is in vivo. The conditions noted are these: 31.25 μM to 4000 μM; imaged day 10.
Source text: as §1, §2, §3

In series [3] the test system is Triticum aestivum (wheat). As to the kind of experiment: Activity vs a panel of plants: Triticum aestivum. In kind it is in vivo. The conditions noted are these: 31.25 μM to 4000 μM; imaged day 12.
Source text: as §1, §2, §3

The test system of series [4] is A. thaliana wild type Col-0 or single-locus DMOc line. As to the kind of experiment: Compatibility with the DMOc dicamba tolerance trait. The settings on record: wild type vs DMOc line; dicamba 7-125 μM, 1·HCl 31-500 μM; sprayed at 4 and 7 days; imaged Day 11. In kind it is in vivo, Arabidopsis thaliana. The source says: To recreate dicamba tolerance by dicamba monooxygenase in A. thaliana similarly to that made by Behrens et al. (2007, Science 316: 1185-1188) a synthetic gene encoding the oxygenaseDIC from Stenotrophomonas maltophilia strain DI-6 (GenBank accession AY786443) was made to include a 58-residue chloroplast targeting leader used by Anderson and Smith (1986, Biochem. J. 240: 709-715) and incorporated a […] mutation said to provide useful changes in pH and temperature optima (See, for example, […] in International Patent Application WO2007146706A2). A BamHI site immediately preceding the sequence encoding the start Met and a SacI site immediately after the stop codon were used to subclone this synthetic DMOc gene into pMDC43 (Curtis and Grossniklaus 2003 Plant Physiol. 133: 462-469), from which the mGFP6 coding sequence and Gateway recombination cassette were removed by the same restriction enzymes, putting DMOc under control of a double CaM[…] promoter and providing it the nopaline synthase terminator. The plasmid pMDC43-DMOc was transferred from E. coli containing the plasmid to Agrobacterium tumefaciens (strain LBA4404) using a helper strain (E. coli […] pRK2013). Wild type Col-0 Arabidopsis thaliana was transformed by in planta transformation. The first transgenic generation (T1) was selected on MS-agar plates (1% agar, 1×MS salts, pH 5.7, 1% glucose) containing 20 μg/mL hygromycin. […]

The test system of series [5] is Ratibida columnifera (prairie coneflower). As to the kind of experiment: Activity vs a panel of plants: Ratibida columnifera. In kind it is in vivo. The conditions noted are these: 31.25 μM to 4000 μM; imaged day 12.
Source text: as §1, §2, §3

For series [6], the system named is Arabidopsis thaliana. As to the kind of experiment: Activity vs a panel of plants: Arabidopsis thaliana. In kind it is in vivo. The conditions noted are these: 31.25 μM to 4000 μM; imaged day 12.
Source text: as §1, §2, §3

The test system of the next series is Eragrostis tef (tef). As to the kind of experiment: Activity vs a panel of plants: Eragrostis tef. In kind it is in vivo. The conditions noted are these: 31.25 μM to 4000 μM; imaged day 12.
Source text: as §1, §2, §3

Series [7] relates to Lolium rigidum (herbicide resistant ryegrass). As to the kind of experiment: Activity vs a panel of plants: Lolium rigidum. In kind it is in vivo. The settings on record: 31.25 μM to 4000 μM; imaged day 12.
Source text: as §1, §2, §3

The subject of series [8] is Arabidopsis thaliana. As to the kind of experiment: Small-scale drift (volatility) assay. On the set-up: species or system Arabidopsis thaliana Col-0. The settings on record: for drift burn (volatility), FIG. 6: 15 mM and 30 mM, same methodology; for drift behaviour, FIG. 27: 2.5 or 5 mM, images recorded at 17 days; for drift burn (volatility), FIG. 5: 5, 10 or 15 mM in lid in centre of pot, imaged after 2 weeks. Here is the method: A small-scale drift assay was established. Pots (63×63×59 mm) were filled with Seedling Substrate Plus+ soil (Bord na Móna Horticulture Ltd, Newbridge, Ireland) consisting of Irish peat. Soil was pre-wet before sowing to saturation and a plastic lid from a 50 mL tube placed in the centre of each pot. Seeds of wild type Col-0 Arabidopsis thaliana were sown around each of the lids. Seeds were cold-treated for 3 days in the dark at 4° C. to synchronize germination and then grown in a chamber at 22° C., with 60% relative humidity and in a 16 h light/8 h dark photoperiod. […] After growth for 2 weeks plants were imaged. (In the case of FIG. 27, images were recorded at 17 days).
A second experiment was performed using the same methodology, but at higher concentrations (15 mM and 30 mM).

Series [9] relates to Cynodon dactylon (couch grass). As to the kind of experiment: Activity vs a panel of plants: Cynodon dactylon. In kind it is in vivo. The conditions noted are these: 31.25 μM to 4000 μM; imaged day 10.
Source text: as §1, §2, §3

As for `COc1c(Cl)ccc(Cl)c1C(=O)OCCN(C)C.Cl` [Compound 1. HCl, 2-(dimethylamino)ethyl 3,6-dichloro-2-methoxybenzoate hydrochloride], the “activity against Solanum lycopersicum on an equimolar basis, FIGS. 15 and 16” value in [1] is listed as “comparable activity”. The “activity against Raphanus raphanistrum on an equimolar basis, FIGS. 13 and 14” value in [2] is recorded as “comparable activity”. In series [3], the “activity against Triticum aestivum on an equimolar basis, FIG. 17” value is “comparable activity”. The “compatibility with the dicamba tolerance (DMOc) trait, FIG. 26” value in series [4] is on record as “Compatible with the DMOc Trait”. In addition, the “activity against Ratibida columnifera on an equimolar basis, FIG. 12” value in series [5] is given as “comparable activity”. In addition, the “activity against Arabidopsis thaliana on an equimolar basis, FIG. 7” value in the series with Arabidopsis thaliana [6] is given as “comparable activity”. Moreover, the “activity against Eragrostis tef on an equimolar basis, FIG. 10” value in the series with Eragrostis tef (tef) is “comparable activity”. Besides, in [7], the “activity against Lolium rigidum on an equimolar basis, FIG. 11” value is reported as “comparable activity”. Besides, in the series with Arabidopsis thaliana [8], the “drift burn (volatility), FIG. 6” value is “did not show any drift burn”; the “drift behaviour, FIG. 27” value is “does not drift”; the “drift burn (volatility), FIG. 5” value is on record as “no drift burn at all was visible”. In series [9], the “activity against Cynodon dactylon on an equimolar basis, FIGS. 8 and 9” value was “comparable activity”.

As to `COc1c(Cl)ccc(Cl)c1C(=O)O` [dicamba, 3,6-dichloro-2-methoxybenzoic acid, reference compound], in series [1], the “activity against Solanum lycopersicum on an equimolar basis, FIGS. 15 and 16” value is recorded as “comparable activity”. In addition, the “activity against Raphanus raphanistrum on an equimolar basis, FIGS. 13 and 14” value in series [2] is given as “comparable activity”. The “activity against Triticum aestivum on an equimolar basis, FIG. 17” value in series [3] was “comparable activity”. In addition, the “compatibility with the dicamba tolerance (DMOc) trait, FIG. 26” value in series [4] is on record as “compatibility”. For the same compound, the “activity against Ratibida columnifera on an equimolar basis, FIG. 12” value in series [5] was “comparable activity”. In addition, the “activity against Arabidopsis thaliana on an equimolar basis, FIG. 7” value with Arabidopsis thaliana [6] is “comparable activity”. In addition, the “activity against Eragrostis tef on an equimolar basis, FIG. 10” value in the series with Eragrostis tef (tef) is listed as “comparable activity”. In addition, in series [7], the “activity against Lolium rigidum on an equimolar basis, FIG. 11” value is recorded as “comparable activity”. In the series with Arabidopsis thaliana [8], the “drift burn (volatility), FIG. 6” value is given as “did”; the “drift behaviour, FIG. 27” value is “drifted”; the “drift burn (volatility), FIG. 5” value is “burn symptoms are apparent”. Moreover, in series [9], the “activity against Cynodon dactylon on an equimolar basis, FIGS. 8 and 9” value is on record as “comparable activity”.
